Measured values from ChEMBL document CHEMBL1201862, “PubChem BioAssay data set” (2004).
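Five concentrations, 48 hours, 96-well plates. Abbreviation: GI50, concentration required for 50% inhibition of growth.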 The source made the active and inactive calls. No stated cut-off is given here; in the data, active = GI50 up to about 1.1 µM and inactive = higher.

How the values were obtained:
Assay in all cases: growth of human tumour cells (NCI), 48 h
RXF 393 = tested on: RXF 393
HT-29 = tested on: HT-29
SN12C = tested on: SN12C
UACC-62 = tested on: UACC-62
LXFL 529 = tested on: LXFL 529
SF-295 = tested on: SF-295
SF-268 = tested on: SF-268
A549 = tested on: A549
UO-31 = tested on: UO-31
EKVX = tested on: EKVX
Malme-3M = tested on: Malme-3M
OVCAR-5 = tested on: OVCAR-5
HCT-116 = tested on: HCT-116
K562 = tested on: K562
M19-MEL = tested on: M19-MEL
NCI-H522 = tested on: NCI-H522
HOP-92 = tested on: HOP-92
CCRF-CEM = tested on: CCRF-CEM
SK-MEL-2 = tested on: SK-MEL-2
SK-OV-3 = tested on: SK-OV-3
KM-20L2 = tested on: KM-20L2
KM12 = tested on: KM12
SW-620 = tested on: SW-620
OVCAR-4 = tested on: OVCAR-4
SK-MEL-28 = tested on: SK-MEL-28
OVCAR-3 = tested on: OVCAR-3
SNB-75 = tested on: SNB-75
OVCAR-8 = tested on: OVCAR-8
UACC-257 = tested on: UACC-257
SR = tested on: SR
DMS-114 = tested on: DMS-114
NCI-H23 = tested on: NCI-H23
TK-10 = tested on: TK-10
IGROV-1 = tested on: IGROV-1
SF-539 = tested on: SF-539
M14 = tested on: M14
HOP-62 = tested on: HOP-62
NCI-H460 = tested on: NCI-H460
RPMI-8226 = tested on: RPMI-8226
HL-60 = tested on: HL-60
SNB-19 = tested on: SNB-19
COLO 205 = tested on: COLO 205
MOLT-4 = tested on: MOLT-4
SK-MEL-5 = tested on: SK-MEL-5
U-251 = tested on: U-251
XF498 = tested on: XF498
A498 = tested on: A498
NCI-H226 = tested on: NCI-H226
DMS-273 = tested on: DMS-273
SNB-78 = tested on: SNB-78

Measured: GI50

O=C1C(Cl)N(c2ccccc2)C1c1c[nH]c2ccccc12 (stereo not given)
inactive: RXF 393 > 100 µM | HT-29 > 100 µM | SN12C > 100 µM | UACC-62 > 100 µM | LXFL 529 > 100 µM | SF-295 > 100 µM | SF-268 > 100 µM | A549 > 100 µM | UO-31 65.6 µM | EKVX > 100 µM | Malme-3M > 100 µM | OVCAR-5 46 µM | HCT-116 > 100 µM | K562 > 100 µM | M19-MEL > 100 µM | NCI-H522 > 100 µM | HOP-92 > 100 µM | CCRF-CEM > 100 µM | SK-MEL-2 > 100 µM | SK-OV-3 > 100 µM | KM-20L2 > 100 µM | KM12 > 100 µM | SW-620 > 100 µM | OVCAR-4 > 100 µM | SK-MEL-28 > 100 µM | OVCAR-3 > 100 µM | SNB-75 > 100 µM | OVCAR-8 > 100 µM | UACC-257 > 100 µM | SR > 100 µM | DMS-114 > 100 µM | NCI-H23 > 100 µM | TK-10 > 100 µM | IGROV-1 > 100 µM | SF-539 > 100 µM | M14 > 100 µM | HOP-62 > 100 µM | NCI-H460 > 100 µM | RPMI-8226 > 100 µM | HL-60 > 100 µM | SNB-19 48.9 µM | COLO 205 > 100 µM | MOLT-4 > 100 µM | SK-MEL-5 > 100 µM | U-251 > 100 µM | XF498 > 100 µM

CCSc1c2ccccc2nc2c(OC)ccc(OC)c12
inactive: RXF 393 18.6 µM | HT-29 25.7 µM | UACC-62 20.6 µM | SF-295 25.2 µM | SF-268 22.8 µM | A549 70.6 µM | UO-31 25.9 µM | EKVX > 100 µM | OVCAR-5 42.3 µM | A498 31 µM | HCT-116 20.1 µM | M19-MEL 18.5 µM | NCI-H522 41.2 µM | HOP-92 22.3 µM | CCRF-CEM 36.3 µM | SK-OV-3 24.7 µM | KM12 24.7 µM | SK-MEL-28 19.8 µM | OVCAR-8 22.1 µM | UACC-257 22.4 µM | SR 23.9 µM | NCI-H23 > 10 µM | TK-10 33.8 µM | IGROV-1 26.7 µM | M14 35.7 µM | HOP-62 36.5 µM | NCI-H460 20.7 µM | NCI-H226 25.1 µM | DMS-273 21.9 µM | HL-60 23.3 µM | SNB-19 29.1 µM | SNB-78 14.5 µM | MOLT-4 22 µM | U-251 19.3 µM
